Where a SMILES comes first, the peptide text is derived from it. The star is where a group is joined. Cbz = O=C(OCc1ccccc1)*
Tests used:
[1] = molecular target: T1, Neuronal Membrane Proteasome (NMP) (Mus musculus, UniProt O55234+P70195+Q60692); assay: Release of 35S-radiolabeled peptides (SNAPPs) from cortical neurons into media, liquid scintillation; assay type: cell-based; settings: baseline spontaneous activity
T1 construct: we believe that the endogenous NMP is catalytically active; endogenous in cells; host or cells: primary cultured cortical neurons from C57Bl/6 mouse embryos
Experimental: Cortical neurons were cultured for 12-18 days in vitro. Neurons were membrane depolarized with 55 mM extracellular KCl by addition of prewarmed depolarization buffer (55 mM KCl, 0.2 mM CaCl2, 1 mM MgCl2, 10 mM HEPES pH7.5) or a mock buffer (55 mM NaCl, final) in fresh neuronal growth media as previously described (Nature 455: 1198-1204 (2008)). Labeling was done in Neurobasal growth media with B27 supplement and without methionine or cysteine (Life Technologies, special order). ^35S methionine-cysteine (EasyTag PerkinElmer) was incorporated at 55 mCi in the cys/met free growth medium. Where indicated, MG132 (25 mM, Cell Signaling) and ATPγS (1 mM, Sigma) was added during the radioactive labeling window, 15 minutes prior to stimulation and was kept in for the duration of the stimulation.
For any chase experiment, free radioactivity was washed out with phosphate-buffered saline and replaced with fresh neuronal growth medium. […]
Quantification of SNAPPs was done by quantifying the amount of radioactivity in each sample by liquid scintillation (Wallac 1410). […]

[2] = tested on: GCaMP3-transfected cultured cortical neurons; assay: Calcium imaging of bicuculline-stimulated GCaMP3-transfected cortical neurons; assay type: cell-based, mouse; settings: for amplitude of bicuculline-induced calcium transients: 1 μM bicuculline, biotin-epoxomicin 25 μM co-administered
Experimental: Bicuculline treatment was administered as a 1 μM stimulation in calcium imaging buffer in a perfusion setup. […] Each treatment was monitored for three minutes prior to washout. […] Cells were ensured to be healthy at the end of the imaging process by stimulating with 55 mM KCl and washing out and assessing for a proper calcium signal. Quantification was done by picking multiple regions of interests in primary and secondary dendrites across multiple coverslips over different imaging days. Data was analyzed using the Time Series Analyzer V3.0 ImageJ plugin and the ROI manager. Data were pooled for all the ROIs to generate a single N value. Brains from P0-P3 mouse pups (Cre GCaMP3; Nestin-Cre ER) were dissected and plated in Neurobasal-A with B-27 supplement for two weeks. At DIV7, 4-hydroxytamoxifen (4-HT, concentration) was added to induce GCaMP expression. Neurons were imaged in a calcium-imaging buffer (130 mM NaCl, 3 mM KCl, 2.5 mM CaCl2, 0.6 mM MgCl2, 10 mM Hepes, 10 mM glucose, 1.2 mM NaHCO3 pH 7.45). Peptides were collected, filtered, and dialyzed and then lyophilized prior to resuspension in 1 mL of MilliQ water and addition onto GCaMP-encoding neurons. […] Peptides treated with Proteinase K were spun through a 10 kDa MW cutoff filter prior to addition onto neurons in order to remove Proteinase K. Random peptide mixtures contained HIV-TAT, a polybasic peptide mixture, or a crude peptide prep.

[3] = molecular target: T2, NMP (Mus musculus, UniProt O55234+P70195+Q60692); assay: Catalytic activity of purified NMP with fluorescent substrate SUC-LLVY-AMC; assay type: biochemical; settings: low concentration (0.05% final), purified NMP in vitro
T2 construct: we purified NMPs from neuronal plasma membranes using a 20S purification matrix; endogenous in cells; host or cells: cultured neurons; detergent-extracted plasma membranes, isolated with the 20S proteasome purification kit (Enzo Life Sciences), assayed on beads
Experimental: In some embodiments, proteasome purification was performed as follows. Cells were treated and then immediately put on ice before purifications were performed as previously described (Methods Mol Biol 832, 423-432, 2012). Briefly, proteasomes were purified out of neuronal cytosol and detergent-extracted neuronal plasma membranes using the 20S proteasome purification kit (Enzo Life Sciences) or the 26S proteasome purification kit (UBPBio). For western blots, samples were denatured at 65° C. for 5 minutes in SDS sample buffer, resolved by SDS PAGE, transferred to nitrocellulose, and immunoblotted. For catalytic activity assays, ⅙th of the bead volume following proteasome purification was resuspended in activity assay buffer (20 mM Tris-HCl, pH8.0, 5 mM ATP, 5 mM MgCl2, 1 mM DTT). 26S proteasomal activity was assessed by the addition of 10 μM of SUC-LLVY-AMC (Enzo Life Sciences). The contribution of 20S proteasomal activity was assessed by the comparison of 26S proteasome activity to that of total proteasome activity (26S+20S), measured by the activity of samples containing SDS at a final concentration of 0.05%.

[4] = tested on: NMP; assay: NMP expression by surface biotinylation, streptavidin pulldown and western blot in treated cortical neurons; assay type: cell-based; settings: DIV12 mouse neurons, 1 μM for 12 hours
Experimental: Surface biotin-labeling was performed as previously described (Nat Neurosci 12, 879-887 2009). Whole mouse brains, cultured cells or whole animal tissue were obtained where indicated and each sample was labeled using Sulfo-NHS-LC-Biotin (ThermoFisher). Cultured cells were washed in pH 8.0 PBS (Gibco) with 1 mM CaCl2 and 2 mM MgCl2 (PBSCM) and treated with 1 mg/mL Sulfo-NHS-LC-Biotin dissolved in PBSCM for 20 minutes at 4° C. before the reaction was quenched for 10 minutes in 50 mM glycine in PBSCM. Intact tissue was quickly and manually chopped, following biotinylation for only 10 minutes at 4° C. in 0.5 mg/mL Sulfo-NHS-LC-Biotin prior to quenching the reaction.
Primary, human central nervous system (CNS) tissue, gestational weeks 19-21, were obtained under surgical written consent following protocols approved by the Johns Hopkins Institutional Review Board, based on its designation as biological waste. Tissue was mechanically chopped at 4° C., and immediately processed for surface biotinylation. For streptavidin pulldown experiments lysed cells were incubated with high capacity streptavidin agarose beads overnight and then washed thrice with RIPA buffer before resuspension in SDS sample buffer.
For western blots, samples were boiled for 5 minutes in SDS sample buffer, resolved by SDS PAGE, transferred to nitrocellulose, and immunoblotted. […]

## CC(C)C[C@@H](C=O)NC(=O)[C@H](CC(C)C)NC(=O)[C@H](CC(C)C)NC(=O)OCc1ccccc1 [MG-132] (Cbz-Leu-Leu-Leu-aldehyde)
[1]
  peptide release under non-stimulating conditions: inhibited
[2]
  amplitude of bicuculline-induced calcium transients: similar
[2]; acute addition onto neurons, within seconds
  neuronal activity-induced calcium signaling: suppressed

## CCCCCCCCCCCCOS(=O)(=O)[O-].[Na+] [SDS, sodium-dodecyl-sulfate]
[3]
  catalytic activity of the NMP: potently stimulated

## Aβ1-42: Aβ1-42 peptide used to treat mouse cortical neurons as an Alzheimer's disease model
[4]
  expression of proteasome subunits in the streptavidin pulldown (NMP expression): significant decrease

## biotin-epoxomicin
[2]
  amplitude of bicuculline-induced calcium transients: strongly and rapidly attenuated

Reference: US10775391B2, “Nervous system-specific transmembrane proteasome complex that modulates neuronal signaling through extracellular signaling via brain activity peptides” (THE JOHNS HOPKINS UNIVERSITY, priority 2015, dated 2020)
